Measured values reported in patent US9364448B2, “Nitisinone for treatment of oculocutaneous/ocular albinism and for increasing pigmentation” (The United States of America, as represented by the …, priority 2010, dated 2016).

How the values were obtained:
[1] = system: C57BL/6J-Tyr^c-2J/c-2J mice (OCA1a model); assay: Transmission electron microscopy of iris, RPE and choroid, Tyr^c-2J/c-2J mice; assay type: in vivo, mouse; settings: treated vs untreated
Method: Transmission Electron Microscopy. Eyes from drug and vehicle-treated mice were dissected and divided into anterior and posterior segments (n=2 eyes from 2 separate mice in each group). The iris and posterior part (choroid, RPE and retina) of the eyes were removed and fixed in 2% glutaraldehyde and 2% paraformaldehyde in 0.1 M sodium phosphate buffer (PB), pH 7.4 for about 12 hours at room temperature (RT). After a wash with rinsing buffer (RB, 4% sucrose and 0.15 mM CaCl2 in PB), pH 7.4 at 4° C., tissues were postfixed in 1% OsO4 in 0.1 M PB, pH 7.4 for 1 hour. After rinsing and dehydration, tissues were embedded in Durcupan resin for 72 hours at 60° C. One micron semi-sections were used for tissue orientation. About 70-90 nm ultrasections were also collected in 200 mesh grids and counterstained with 5% uranyl acetate and 0.3% lead citrate. […]
In order to quantitate the effect of NTBC on pigmentation in ocular tissues and to assess for sub-clinical changes in ocular pigmentation, transmission electron microscopy (TEM) of iris, retinal pigment epithelium (RPE), and choroid of treated and control mice (n=4 eyes from 2 mice for each group) was performed. […]

[2] = affected individuals, oral dosing; cited from earlier work
[3] = system: wild-type human melanocytes; assay: Human melanocyte melanin assay, wild-type (control); assay type: cell-based; settings: 1 mM tyrosine, about one week
Method: (§1) Human melanocyte culture and melanin assay. Human melanocytes were established from skin punch biopsies. Skin specimens were washed with PBS then treated with 0.25% trypsin-EDTA (Gibco 25200) for about 2 hours followed by vigorous vortexing to separate the epidermis. The epidermis was sectioned and attached to scored patches on the bottom of a 6-well polystyrene culture dish before being covered with melanocyte media. About 1000 ml of melanocyte media was made from 950 ml Ham's F10 (Gibco 1550), 25 ml FBS, 5 ug bFGF (Sigma F0291), 10 μg endothelin (Sigma, E7764, Sigma Chemicals, St. Louis, Mo.), 7.5 mg IBMX (Sigma 17018), 30 μg cholera toxin (Sigma C8052), 3.3 μg TPA (Sigma P8139), 10 ml PenStrepGlutamine, 1 ml fungizone and the media was 0.22 μm filtered.
(§2) Melanocytes were plated on 6 well dishes and grown to confluency. Melanin assays were run in triplicate by supplementing three wells per plate with 1 mM tyrosine (Sigma T8566), using the remaining 3 wells as untreated controls. Treatment time was approximately one week. […] The OD475 was measured and converted to melanin content via a standard curve using synthetic melanin (Sigma M0418). The data were normalized to protein content, determined using a bicinchoninic (BCA) assay kit (BioRad, Inc., Hercules, Calif.). Differences between treated and untreated measurements were analyzed with a two-tailed unpaired t-test. […]

[4] = system: melanocytes from an OCA-1A patient; assay: Human melanocyte melanin assay, OCA-1A patient; assay type: cell-based; settings: presence or absence of 1 mM tyrosine
Method: as §1, §2

Compound | Number of pigmented melanosomes (stages III and IV) in iris, choroid and RPE (TEM) [1] | Half-life [2] | Melanin production [3] | Pigment production [4]
O=C1CCCC(=O)C1C(=O)c1ccc(C(F)(F)F)cc1[N+](=O)[O-] [NTBC, 2-(-2-nitro-4 trifluoromethylbenzoyl)-1,3 cyclohexanedione] | little to no increase | 50 to 60 h |  | 
N[C@@H](Cc1ccc(O)cc1)C(=O)O [tyrosine] |  |  | produce significant melanin | did not produce detectable pigment
